Laboratory results: US20190223483A1, “SENSORY MODIFIER COMPOUNDS” (CARGILL, INCORPORATED, priority 2017, published 2019)
Values joined by “and” are separate entries in the source; they are usually repeats but may differ in a detail not shown here. Equal values may be shown once.

Key:
[1] = Roundtable assessment of sweetness linger (scale 0 to 6); type: in vivo; design: key: 0 = none; 1 = trace/faint; 2 = slight; 3 = moderate; 4 = definite; 5 = strong; 6 = extreme
Protocol: In some aspects, the amount of sensory modifier compound effective to […] can be determined by panel testing with trained panelists. For example, sweetness linger can be determined by the following test: For other sweetness attributes, the solutions were tested by a panel of at least four individuals that are highly-trained in tasting steviol glycoside solutions. The highly-trained panelists used a roundtable methodology to assess each sweetness attribute. To test each solution, the highly-trained panelists dispensed approximately 2 mL of each solution into their own mouths by transfer pipet, dispersed the solution by moving their tongues, and recorded a value for the particular sweetness attribute being tested. Between tasting solutions, the panelists were able to cleanse their palates with water. For each sweetness attribute, the panelist agreed on a descriptive scale with relative intensities assigned for each sweetness attribute and then recorded the values for each sweetness attribute against this. For example, this roundtable assessment of sweetness linger assigned a scale of 0 to 6 with a score of 0 indicating no sweetness linger and a score of 6 indicating extreme sweetness linger. Roundtable assessment of sweetness linger assigned a scale of 0 to 6 with a score of 0 indicating no sweetness linger and a score of 6 indicating extreme sweetness linger (0=none, 1=trace, 2=slight, 3=moderate, 4=definite, 5=strong, 6=extreme). Roundtable assessment of rounded assigned a scale of 0 to 3 with a score of 0 indicating spikey and a score of 3 indicating desirable rounded (0=none, 1=mostly spikey, some rounded, 2=mostly rounded, some spikey, 3=rounded). Roundtable assessment of mouthfeel assigned a scale of 0 to 2 with a score of 0 indicating water and a score of 2 indicating syrupy (0=water, 1=sucrosey, 2=syrupy). Roundtable assessment of bitterness assigned a scale of 0 to 6 with a score of 0 indicating no bitterness and a score of 6 indicating extreme sweetness linger (0=none, 1=trace, 2=slight, 3=moderate, 4=definite, 5=strong, 6=extreme). Roundtable assessment of off tastes assigned a scale of 0 to 6 with a score of 0 indicating no bitterness and a score of 6 indicating extreme off tastes (0=none, 1=trace, 2=slight, 3=moderate, 4=definite, 5=strong, 6=extreme). […] Roundtable assessment of botanical notes assigned a scale of 0 to 5 with a score of 0 indicating no botanical notes and a score of 5 indicating strong (0=none, 1=trace, 2=slight, 3=moderate, 4=definite, 5=strong). Exemplary tests are recorded below in Example 1.
For other sweetness attributes, the solutions were tested by a panel of at least four individuals that are highly-trained in tasting steviol glycoside solutions. The highly-trained panelists used a roundtable methodology to assess each sweetness attribute. To test each solution, the highly-trained panelists dispensed approximately 2 mL of each solution into their own mouths by transfer pipet, dispersed the solution by moving their tongues, and recorded a value for the particular sweetness attribute being tested. Between tasting solutions, the panelists were able to cleanse their palates with water. For each sweetness attribute, the panelist agreed on a descriptive scale with relative intensities assigned for each sweetness attribute and then recorded the values for each sweetness attribute against this. For example, this roundtable assessment of sweetness linger assigned a scale of 0 to 6 with a score of 0 indicating no sweetness linger and a score of 6 indicating extreme sweetness linger. Roundtable assessment of sweetness linger assigned a scale of 0 to 6 with a score of 0 indicating no sweetness linger and a score of 6 indicating extreme sweetness linger (0=none, 1=trace, 2=slight, 3=moderate, 4=definite, 5=strong, 6=extreme). […]

[2] = Sweetness intensity (SEV) by trained panel against 1%-14% sucrose standards; type: in vivo; conditions: for sweetness intensity plateau (SEV): Reb M alone, at about 800 ppm; for sweetness intensity (SEV): about 1400 ppm Reb M with about 1400 ppm sensory modifier
Protocol: In some aspects, the amount of sensory modifier compound effective to increase sweetness intensity can be determined by panel testing with trained panelists. For example, […] can be determined by the following test: Solutions were prepared by dissolving steviol glycosides and sensory modifier compounds into reverse osmosis water at the indicated concentrations and/or ratios. Solutions were tested by a panel of at least four individuals that are highly-trained in tasting steviol glycoside solutions. The highly-trained panelists were trained against a standard range of 1%, 2%, 3%, 4%, 5%, 6%, 7%, 8%, 9%, 10%, 11%, 12%, 13%, and 14% sucrose solutions corresponding to 1, 2, 3, 4, 5, 6, 7, 8, 9, 10, 11, 12, 13, and 14 SEV. To test each solution, the highly-trained panelists dispensed approximately 2 mL of each solution into their own mouths by transfer pipet, dispersed the solution by moving their tongues, and recorded an SEV value for each solution based on comparison to the 1%, 2%, 3%, 4%, 5%, 6%, 7%, 8%, 9%, 10%, 11%, 12%, 13%, and 14% sucrose solutions. Between tasting solutions, the panelists were able to cleanse their palates with water. […] For sweetness intensity, the panelists focused on, and only recorded, the sweetness intensity in SEV that they tasted while disregarding other attributes of the solution. At the highest concentrations of steviol glycoside and sensory modifier compound, the panelists found other attributes to be highly noticeable, but recorded the isolated sweetness intensity for each solution despite these other attributes. Exemplary tests are described below in Example 1.
All solutions were prepared by dissolving steviol glycosides and sensory modifier compounds into reverse osmosis water at the indicated concentrations and/or ratios.
For sweetness intensity, the solutions were tested by a panel of at least four individuals that are highly-trained in tasting steviol glycoside solutions. The highly-trained panelists were trained against a standard range of 1%, 2%, 3%, 4%, 5%, 6%, 7%, 8%, 9%, 10%, 11%, 12%, 13%, and 14% sucrose solutions corresponding to 1, 2, 3, 4, 5, 6, 7, 8, 9, 10, 11, 12, 13, and 14 SEV. To test each solution, the highly-trained panelists dispensed approximately 2 mL of each solution into their own mouths by transfer pipet, dispersed the solution by moving their tongues, and recorded an SEV value for each solution based on comparison to the 1%, 2%, 3%, 4%, 5%, 6%, 7%, 8%, 9%, 10%, 11%, 12%, 13%, and 14% sucrose solutions. Between tasting solutions, the panelists were able to cleanse their palates with water. […] For this example, the panelists focused on and only recorded the sweetness intensity in SEV that they tasted while disregarding other attributes of the solution. At the highest concentrations of steviol glycoside and sensory modifier compound, the panelists found other attributes to be highly noticeable, but recorded the isolated sweetness intensity for each solution despite these other attributes.

[3] = RebM 700 ppm + cichoric acid (tartaric backbone) 514 ppm
[4] = RebM 700 ppm + cichoric acid (tartaric backbone) 772 ppm
[5] = RebM 700 ppm + cichoric acid (tartaric backbone) […]
[6] = RebM 700 ppm + rosmarinic acid 195 ppm
[7] = RebM 700 ppm + rosmarinic acid 391 ppm
[8] = RebM 700 ppm + rosmarinic acid 586 ppm
[9] = steviol glycoside 700 ppm + yerba mate mono/dicaffeoylquinic acids 236 ppm
[10] = steviol glycoside 700 ppm + yerba mate mono/dicaffeoylquinic acids 300 ppm
[11] = steviol glycoside 700 ppm + yerba mate mono/dicaffeoylquinic acids 400 ppm
[12] = steviol glycoside 700 ppm + yerba mate mono/dicaffeoylquinic acids 472 ppm
[13] = steviol glycoside 700 ppm + yerba mate mono/dicaffeoylquinic acids 500 ppm
[14] = steviol glycoside 700 ppm + yerba mate mono/dicaffeoylquinic acids 600 ppm
[15] = steviol glycoside 700 ppm + yerba mate mono/dicaffeoylquinic acids 700 ppm
[16] = steviol glycoside 700 ppm + yerba mate mono/dicaffeoylquinic acids 708 ppm
[17] = steviol glycoside 700 ppm + yerba mate mono/dicaffeoylquinic acids 800 ppm
[18] = steviol glycoside 700 ppm, sensory modifier 0 ppm

C=C1C[C@@]23CC[C@H]4[C@@](C)(CCC[C@@]4(C)C(=O)O[C@@H]4O[C@H](CO)[C@@H](O)[C@H](O[C@@H]5O[C@H](CO)[C@@H](O)[C@H](O)[C@H]5O)[C@H]4O[C@@H]4O[C@H](CO)[C@@H](O)[C@H](O)[C@H]4O)[C@@H]2CC[C@]1(O[C@@H]1O[C@H](CO)[C@@H](O)[C@H](O[C@@H]2O[C@H](CO)[C@@H](O)[C@H](O)[C@H]2O)[C@H]1O[C@@H]1O[C@H](CO)[C@@H](O)[C@H](O)[C@H]1O)C3 [RebM, Rebaudioside M]
Sweetness linger ([1]; 1:1 molar ratio with tartaric acid backbone modifier): no perceptible linger | Sweetness linger ([1]; 1:2 molar ratio with quinic acid backbone modifier): no perceptible linger | Sweetness linger [1, 3]: 0 | Sweetness linger [1, 4]: 0 | Sweetness linger [1, 5]: 0 | Sweetness linger [1, 6]: 6 | Sweetness linger [1, 7]: 3 | Sweetness linger [1, 8]: 2 | Sweetness linger ([1]; RebM 700 ppm, above about 300 ppm quinic backbone modifier): not perceptible | Sweetness linger ([1]; RebM 700 ppm, at or before about 200 ppm quinic backbone modifier): slight | Sweetness linger [1, 9]: 2 | Sweetness linger [1, 10]: 2 | Sweetness linger [1, 11]: 0 | Sweetness linger [1, 12]: 0 | Sweetness linger [1, 13]: 0 | Sweetness linger [1, 14]: 0 | Sweetness linger [1, 15]: 0 and 2 | Sweetness linger [1, 16]: 0 | Sweetness linger [1, 17]: 0 | Sweetness linger [1, 18]: 6 | sweetness intensity plateau (SEV) ([2]; listed as Reb M): about 11 | sweetness intensity plateau (SEV) ([2]; listed as rebaudioside M): ~11 | SEV ([2]; RebM 100 ppm + yerba mate mono/dicaffeoylquinic acids 100 ppm (1:1)): 3.5 | SEV ([2]; RebM 100 ppm, no sensory modifier): 3.25 | SEV ([2]; RebM 200 ppm + yerba mate mono/dicaffeoylquinic acids 200 ppm (1:1)): 6 | SEV ([2]; RebM 200 ppm, no sensory modifier): 4.5 | SEV ([2]; RebM 300 ppm + yerba mate mono/dicaffeoylquinic acids 300 ppm (1:1)): 7.5 | SEV ([2]; RebM 300 ppm, no sensory modifier): 5.75 | SEV ([2]; RebM 400 ppm + yerba mate mono/dicaffeoylquinic acids 400 ppm (1:1)): 8.5 | SEV ([2]; RebM 400 ppm, no sensory modifier): 7.75 | SEV ([2]; RebM 500 ppm + yerba mate mono/dicaffeoylquinic acids 500 ppm (1:1)): 9.25 | SEV ([2]; RebM 500 ppm, no sensory modifier): 9 | SEV ([2]; RebM 600 ppm + yerba mate mono/dicaffeoylquinic acids 600 ppm (1:1)): 10 | SEV ([2]; RebM 600 ppm, no sensory modifier): 9.5 | SEV [2, 3]: 10 | SEV [2, 4]: 9 | SEV [2, 5]: 10 | SEV [2, 6]: 10.5 | SEV [2, 7]: 10.25 | SEV [2, 8]: 10.25 | SEV ([2]; RebM 700 ppm + yerba mate mono/dicaffeoylquinic acids 700 ppm (1:1)): 10.5 | SEV ([2]; RebM 700 ppm, no sensory modifier): 10.5 | SEV ([2]; RebM 800 ppm + yerba mate mono/dicaffeoylquinic acids 800 ppm (1:1)): 10.5 | SEV ([2]; RebM 800 ppm, no sensory modifier): 10.75 | SEV ([2]; RebM 900 ppm + yerba mate mono/dicaffeoylquinic acids 900 ppm (1:1)): 11 | SEV ([2]; RebM 900 ppm, no sensory modifier): 11 | SEV ([2]; RebM 1000 ppm + yerba mate mono/dicaffeoylquinic acids 1000 ppm (1:1)): 11.5 | SEV ([2]; RebM 1000 ppm, no sensory modifier): 11 | SEV ([2]; RebM 1100 ppm + yerba mate mono/dicaffeoylquinic acids 1100 ppm (1:1)): 12 | SEV ([2]; RebM 1100 ppm, no sensory modifier): 11 | SEV ([2]; RebM 1200 ppm + yerba mate mono/dicaffeoylquinic acids 1200 ppm (1:1)): 12.25 | SEV ([2]; RebM 1200 ppm, no sensory modifier): 11 | SEV ([2]; RebM 1300 ppm + yerba mate mono/dicaffeoylquinic acids 1300 ppm (1:1)): 12.5 | SEV ([2]; RebM 1400 ppm + yerba mate mono/dicaffeoylquinic acids 1400 ppm (1:1)): 13 | SEV ([2]; RebM 1500 ppm + yerba mate mono/dicaffeoylquinic acids 1500 ppm (1:1)): 13 | SEV ([2]; RebM 1600 ppm + yerba mate mono/dicaffeoylquinic acids 1600 ppm (1:1)): 13 | sweetness intensity (SEV) ([2]; listed as Reb M): about 13 | sweetness intensity (SEV) ([2]; listed as rebaudioside M): ~13 | SEV [2, 9]: 10 and 10.5 | SEV [2, 10]: 10.25 | SEV [2, 11]: 10.25 | SEV [2, 12]: 10 | SEV [2, 13]: 10.00 | SEV [2, 14]: 10.5 | SEV [2, 15]: 10.5 and 10 | SEV [2, 16]: 10 | SEV [2, 17]: 10.5 | SEV [2, 18]: 10.5
